Data on 1 sequence can be found in patent US20120121574A1, “ANTIMICROBIAL, ANTIVIRAL, ANTICANCER AND IMMUNOMODULATORY PEPTIDES AND USES THEREFORE” (priority 2010, published 2012).

The EC50 is the concentration giving half of the maximal effect.

Series [1] deals with PBMC. The series can be described thus: AlamarBlue cell viability assay on PBMC. The note with it: 1-20 micrograms/ml concentration range, 24 hours. How it is done:
In vitro activity of N10K against HIV-1. PBMC from healthy donors were cultured at the concentration of 2×10^6 cells/ml in 96 wells plates with RPMI 1640 supplemented with 10% FBS, 1% glutamine and 20 UI/ml rIL-2 for 24 hr before treatment with N10K, then the peptide was added at increasing concentrations (1, 10 and 20 micrograms/ml) for 24 hours. AlamarBlue was added (10% v/v) and incubated for 4 hours at 37° C. Cells viability was determined by the AlamarBlue Assay (Biosource International, Inc.). The absorbance was measured with an ELISA plate reader (Tecan Sunrise Absorbance Reader) at the double wavelength of 570/595 nm. AlamarBlue added to the complete RPMI1640 medium was used as blank. […] To verify the anti-HIV-1 activity, an in vitro infection applying two different experimental approaches was performed. PBMC from 3 healthy donors were purified by Ficoll gradient centrifugation, mixed in pool and cultured in RPMI 1640 medium (10% FBS, 1% glutamine and 1% penicillin streptomycin). Before infection cells were stimulated for 24 hours with PHA (5 micrograms/ml) and after with rIL-2 (20 UI/ml). […] Viral replication was evaluated measuring the concentration of the p24 antigen in the culture supernatants by the HIV p24 ELISA Ultrasensitive detection kit (PerkinElmer, Inc.). […]
For orientation: Alamar Blue is a resazurin reagent that responds to reducing activity.

In series [2] the test system is B16F10-Nex2 melanoma cells. The series can be described thus: melanoma cell viability by Trypan Blue exclusion. The note with it: 1 mM to 0.05 mM, 12 hr. On the procedure:
In vitro activity of N10K against B16F10-Nex2, SKme128 and SKme125 melanoma cells. Peptide N10K and the relative scramble peptide (SP) used as negative control were diluted from 1 mM to 0.05 mM in RPMI with 10% FCS and incubated with B16F10-Nex2, SKme128 and SKme125 cells (5×10^3 cells/well) in 100 microliters per well for 12 hr at 37° C. Each peptide was tested in triplicate. After 12 hr, the cytotoxic activities of the peptides were determined by measuring cell viability by Trypan Blue exclusion. A 50% inhibition of cell growth was taken as a comparative index of cytotoxicity (EC50).
In vitro activity of T11F against B16F10-Nex2, SKme128 and SKme125 melanoma cells. Peptide T11F and the relative scramble peptide (SP) used as negative control were diluted from 1 mM to 0.05 mM in RPMI with 10% FCS and incubated with B16F10-Nex2, SKme128 and SKme125 cells (5×10^3 cells/well) in 100 microL per well for 12 hr at 37 u° C. Each peptide was tested in triplicate. After 12 hr, the cytotoxic activities of the peptides were determined by measuring cell viability by Trypan Blue exclusion. A 50% inhibition of cell growth was taken as a comparative index of cytotoxicity (EC50).

Series [3] concerns C. albicans SC5314 strain. On the procedure: In vitro activity of N10K against C. albicans SC5314 strain. The candidacidal activity of N10K peptide against C. albicans was assessed by a conventional colony forming unit (CFU) assay as previously described (Polonelli et al., 2003; Manfredi et al., 2005). Briefly, cells of C. albicans SC5314 were incubated at 37° C. for 6 hours (hr) in the presence of N10K at the concentration indicated of 20, 12.5 or 6.25 microgram/ml, or in distilled water as control (C). After incubation, cell suspensions were plated on Sabouraud dextrose agar and incubated at 30° C. for 48 hours when CFU were counted (** P<0.01 for N10K treated versus untreated cells, by t test). […]
The alanine-substituted derivatives (asd), defined according to the position held by the alanine-substituted aminoacid, were tested against C. albicans by a conventional colony forming unit (CFU) as previously described (Polonelli et al., 2003). Briefly, cells of C. albicans SC5314 were incubated at 37° C. for 6 hours in the presence of N10K or N10K asd at different scalar concentrations or distilled water as control. After incubation, cell suspensions were plated on Sabouraud dextrose agar and incubated at 30° C. for 48 hours when CFU were counted. Based on several independent replications, the EC50 value of each peptide was calculated by nonlinear regression analysis using Graph Pad Prism 4.01 software, San Diego, Calif., USA. […]
In vitro microbicidal activity of N10K derivative with 2 amino acid substitutions, or 80% sequence identity with native N10K, namely peptide Seq Id. No. 25 was tested against Candida albicans SC5314 as determined by Colony Forming Unit assay.

The subject of series [4] is C. neoformans 6995 strain. The note with it: 6 hours 37° C.; multiple experiments.
Procedure: After the incubation period, the cell suspensions have been plated on Sabouraud dextrose agar, then incubated at 30° C. and observed for CFU enumeration after 48 hours.
Series [5] deals with U937 cell line. The series can be described thus: annexine-V/propidium iodide flow cytometry on U937. The note with it: annexine-V/propidium iodide staining. (A flow cytometer gives signals particle by particle.)

Read-outs that look alike come from different tables or passages of the source. Where no end group is shown, it is not given here.

Regarding “NQVSLTCLVK [Peptide N10K, N Q V S L T C L V K]”, the “cytotoxicity for PBMC (cell viability)” value in series [1] is given as “not to be cytotoxic”. In addition, the “cytotoxic activity (cell viability)” value in series [2] is given as “showed activity”. For the same sequence, the 50% effective concentration (EC50) in series [3] (6 hours 37° C., several independent replications, peptide batches of Examples I and II) came out at 10 µM; in series [3] (SC5314, 6 h) it was 1 µM; in series [4], 5.16 µM. Further, the “induction of apoptotic/necrotic effects” value in series [5] is “exclude the induction of apoptotic/necrotic effects”.
